{"source": "patent US11278587B2", "about": "(9 METERS BIOPHARMA, INC., priority 2018, dated 2022)", "tested_on": "MCA205 fibrosarcoma cells", "assay": "MCA205 subcutaneous model, tumor growth kinetics", "format": "in vivo, C57BL/6 mice", "settings": "larazotide 2 days per week with anti-PD1 antibody i.p. at 3 day intervals", "note": "Ends that are not written are not given here.", "data": [{"sequence": "GGVLVQPG [larazotide]", "values": [{"measurement": "enhancement of anti-PD1 effect on MCA205 tumor progression", "result": "did not appear to enhance this effect"}]}]}
